Source: patent US20250144186A1, “NOVEL THERAPEUTIC USES OF GARDNERELLA ENDOLYSINS” (priority 2022, published 2025)
Read-outs that look alike come from different tables or passages of the source.

Tests used:
Gardnerella swidsinskii = assay: microbe, parasite or virus in culture; format: cell-based; settings: Gardnerella swidsinskii
Procedure: (§1) The minimum inhibitory concentration (MIC), which is a standard measure of the activity of antimicrobials, was determined according to the Clinical and Laboratory Standards Institute protocol (2018) Methods for Antimicrobial Susceptibility Testing of Anaerobic Bacteria (Carpenter et al., 2018). […] Controls for growth in the absence of antimicrobials were also included. OD600 was recorded by a microplate reader (Tecan, Grodig, Austria) after incubation at 37° C. for 48 h or, for some fast-growing strains, after incubation for 24 h. Absence of growth was defined as OD600≤0.14. […] MIC readout and MBC99.5 spotting were performed after 72 h incubation for H2B10B11.
(§2) However, topical intravaginal antibiotic administration is recommended for BV therapy, which allows to reach concentrations of active ingredients in the mg/mL range. […] Abbreviations: n.d., not determined; SJHB, St. Jan Hospital Bruges.
(§3) MIC90 is defined as the MIC value for 90% of the tested strains. For PM-477 (H2B10), the resistance breakpoint is not defined, therefore a “% resistant” is not defined (n.d.).

Gardnerella vaginalis = assay: microbe, parasite or virus in culture; format: cell-based; settings: Gardnerella vaginalis
Procedure: as §1, §2, §3

All Gardnerella = assay: MIC assessment in suspension, panel of 22 strains; format: cell-based, Gardnerella spp.
Procedure: as §1, §2, §3

Gardnerella leopoldii = assay: MIC / MBC99.5 assessment in suspension; format: cell-based; settings: Gardnerella leopoldii; for MIC: read-out: MIC; for MBC: read-out: MBC99.5
Procedure: as §1, §2, §3

Gardnerella piotii = assay: MIC / MBC99.5 assessment in suspension; format: cell-based; settings: Gardnerella piotii; for MIC: read-out: MIC
Procedure: as §1, §2, §3

[1] = system: Gardnerella strains from vaginal swabs of BV patients; assay: MIC and MBC99.5 on 18 in-house BV patient isolates; format: cell-based, Gardnerella spp.
Procedure: as §1

[2] = system: Gardnerella type strains and patient isolates; assay: MIC and MBC99.5 on about 100 type strains and patient isolates of various origins; format: cell-based, Gardnerella spp.
Procedure: as §1
MIC and MBC99.5 of H2B10B11 on a panel of about 100 Gardnerella type strains and patient isolates from various geographic origins were determined following the CLSI protocol. […] For a subset of fast-growing strains thereof and for some additional strains, MIC determination was performed after 48 h of incubation to bridge the results to earlier assessed MIC values (FIG. 6). In total, MIC was determined for 104 different strains (the MIC of 15 strains was determined both, after 48 h and 72 h). […] The number of strains in each group is stated on the right site of the graph.

[3] = G. swidsinskii (BV7) UGent BV7.1, suspension
[4] = G. swidsinskii (Gs23) GS 10234, suspension
[5] = G. swidsinskii (Gs24) GS 9838-1(T), suspension
[6] = read-out: MBC99.5, G. swidsinskii (BV7) UGent BV7.1
[7] = read-out: MBC99.5, G. swidsinskii (Gs23) GS 10234
[8] = read-out: MBC99.5, G. swidsinskii (Gs24) GS 9838-1(T)
[9] = ATCC14018, 24 h, read-out: MBC99.5, G. vaginalis (Gv9) ATCC 14018(T), reduces CFU by 99.5% within 24 h
[10] = ATCC14018, G. vaginalis (Gv9) ATCC 14018(T), suspension
[11] = G. vaginalis (BV50) UGent BV50.1, suspension
[12] = G. vaginalis (FB049) UGent FB049-01, suspension
[13] = read-out: MBC99.5, G. vaginalis (BV111) UGent BV111.5
[14] = read-out: MBC99.5, G. vaginalis (FB049) UGent FB049-01
[15] = G. leopoldii (BV13) UGent BV13.2, suspension
[16] = G. leopoldii (BV13) UGent BV13.2
[17] = G. leopoldii (Gl11) UGent 09.48, suspension
[18] = G. leopoldii (Gl11) UGent 09.48
[19] = G. piotii (FB041) UGent FB041, suspension
[20] = G. piotii (Gp17) UGent 18.01(T)
[21] = G. piotii (Gp17) UGent 18.01(T), suspension
[22] = G. piotii (Gp22) UGent 21.28, suspension
[23] = G. piotii (P80275) UGent P80275
[24] = G. piotii (P80275) UGent P80275, suspension
[25] = MIC after 72 h, unpaired t-test of log2-transformed data

CCC[C@@H]1C[C@@H](C(=O)N[C@@H]([C@H]2O[C@H](SC)[C@H](O)[C@@H](O)[C@H]2O)[C@H](C)Cl)N(C)C1 [CLI, clindamycin]
0: N resistant (All Gardnerella; N=22, resistance ≥32 μg/mL MDZ, ≥8 μg/mL CLI) | N resistant (Gardnerella leopoldii; N=3, resistance ≥32 μg/mL MDZ, ≥8 μg/mL CLI) | N resistant (Gardnerella piotii; N=7, resistance ≥32 μg/mL MDZ, ≥8 μg/mL CLI)
0.125 µg/mL: MIC (Gardnerella swidsinskii) | MBC (Gardnerella piotii; G. piotii (BV049) UGent BV049.1) | MIC (Gardnerella piotii; G. piotii (BV049) UGent BV049.1, suspension)
0.125-2^ μg/mL: MIC Range (Gardnerella piotii; N=7 strains)
< 0.06 µg/mL: MIC (Gardnerella swidsinskii; [5])
0.25 µg/mL: MIC (Gardnerella swidsinskii; [4]) | MBC (Gardnerella swidsinskii; read-out: MBC99.5, G. swidsinskii (BV139) UGent BV139.3) | MBC (Gardnerella swidsinskii; [7]) | MIC (Gardnerella vaginalis; [10]) | MIC (Gardnerella vaginalis; [11]) | MIC (Gardnerella piotii; [22])
1 µg/mL: MBC (Gardnerella swidsinskii; [6]) | MBC (Gardnerella vaginalis; [14]) | MBC (Gardnerella leopoldii; [16]) | MBC (Gardnerella leopoldii; G. leopoldii (BV217) UGent BV217.1) | MBC (Gardnerella leopoldii; [18]) | MIC (Gardnerella piotii; [19]) | MBC (Gardnerella piotii; [20]) | MBC (Gardnerella piotii; [23])
2 µg/mL: MBC (Gardnerella vaginalis; [13]) | MIC (Gardnerella piotii; G. piotii (BV140) UGent BV140.2, suspension) | MBC (Gardnerella piotii; G. piotii (FB041) UGent FB041) | MIC90 (Gardnerella piotii; N=7 strains, read-out: MIC90)
<0.06 to 0.5 µg/mL: MIC Range (Gardnerella swidsinskii; N=4 strains) | MIC Range (Gardnerella vaginalis; N=8 strains)
0.5 µg/mL: MIC90 (Gardnerella swidsinskii) | MIC (Gardnerella swidsinskii; [3]) | MBC (Gardnerella swidsinskii; [8]) | MIC90 (Gardnerella vaginalis) | MBC (Gardnerella vaginalis; [9]) | MIC (Gardnerella vaginalis; [12]) | MBC (Gardnerella vaginalis; read-out: MBC99.5, G. vaginalis (BV50) UGent BV50.1) | MIC90 (All Gardnerella; N=22 strains, read-out: MIC90) | MIC (Gardnerella leopoldii; [15]) | MIC (Gardnerella leopoldii; G. leopoldii (BV217) UGent BV217.1, suspension) | MIC (Gardnerella leopoldii; [17]) | MIC Range (Gardnerella leopoldii; N=3 strains) | MIC90 (Gardnerella leopoldii; N=3 strains, read-out: MIC90) | MBC (Gardnerella piotii; G. piotii (BV154) UGent BV154.1) | MIC (Gardnerella piotii; G. piotii (BV154) UGent BV154.1, suspension) | MIC (Gardnerella piotii; [21]) | MBC (Gardnerella piotii; G. piotii (Gp22) UGent 21.28) | MIC (Gardnerella piotii; [24])
<0.06-2^ μg/mL: MIC Range (All Gardnerella; N=22 strains)
64 µg/mL: MBC (Gardnerella piotii; G. piotii (BV140) UGent BV140.2)

CCS(=O)(=O)CCn1c([N+](=O)[O-])cnc1C [TDZ, tinidazole]
64 µg/mL: MIC (Gardnerella vaginalis; [11]) | MBC (Gardnerella vaginalis; [14]) | MIC (Gardnerella piotii; [19]) | MIC (Gardnerella piotii; [21])
> 128 µg/mL: MIC (Gardnerella swidsinskii; [4]) | MIC (Gardnerella swidsinskii; [5]) | MBC (Gardnerella swidsinskii; [6]) | MBC (Gardnerella swidsinskii; [7]) | MBC (Gardnerella swidsinskii; [8]) | MBC (Gardnerella vaginalis; [9]) | MIC (Gardnerella vaginalis; G. vaginalis (Gv1) UGent 09.07, suspension, read-out: MIC) | MBC (Gardnerella vaginalis; G. vaginalis (Gv1) UGent 09.07, read-out: MBC99.5) | MIC (Gardnerella leopoldii; [15]) | MBC (Gardnerella leopoldii; [18]) | MBC (Gardnerella piotii; [20]) | MBC (Gardnerella piotii; G. piotii (Gp22) UGent 21.28) | MIC (Gardnerella piotii; [22])
4 µg/mL: MIC (Gardnerella vaginalis; G. vaginalis (FB061) UGent FB061-03, suspension, read-out: MIC) | MIC (Gardnerella vaginalis; G. vaginalis (Gv5) UGent 09.01, suspension, read-out: MIC) | MIC (Gardnerella vaginalis; G. vaginalis (Gv8) UGent 25.49, suspension, read-out: MIC)
128 µg/mL: MIC (Gardnerella swidsinskii; [3]) | MIC (Gardnerella vaginalis; [10]) | MBC (Gardnerella vaginalis; [13]) | MBC (Gardnerella leopoldii; [16]) | MIC (Gardnerella leopoldii; [17]) | MBC (Gardnerella piotii; G. piotii (FB041) UGent FB041) | MBC (Gardnerella piotii; [23])
32 µg/mL: MBC (Gardnerella vaginalis; G. vaginalis (FB061) UGent FB061-03, read-out: MBC99.5) | MBC (Gardnerella vaginalis; G. vaginalis (Gv8) UGent 25.49, read-out: MBC99.5) | MIC (Gardnerella piotii; [24])
8 µg/mL: MIC (Gardnerella vaginalis; [12]) | MBC (Gardnerella vaginalis; G. vaginalis (Gv5) UGent 09.01, read-out: MBC99.5)

B1: H2B10B11: recombinant endolysin, SEQ ID NO: 37; differs from H2B10 in one amino acid exchange in one of the binding domains (protein)
chain: MSKRGIDVSEWQGDIDFNAVKASGVEFVIIRAGYGIGCKDKWFEQNYRKAKTCGLDVGAYWYSYANSGFEAAEEAQSCVNMLSGKSFEYPVYFDLEEKSQLNRGRAFCDSLITGFCNKLESCGYYAGFYTSLSTANNLVSAHVRNRYALWIAQWNTHCSYQGSYGLWQYSSSGSVPGVAGRVDMDYAYVDYPSIIKNVGLNGYKNGGSYTAPQISSIDEVAREVINGDWGNGNERKQRLTSAGYDYASVQNKVNELLGVKAYRKSVDELAREVIRGTWGNGSTRKQRLTQAGYDYDAVQKRVNELL
modifications: H2B10B11
one concentration lower: MIC and MBC99.5 values, readout after 48 h compared to 72 h ([2]; 15 strains determined both after 48 h and 72 h)
2 µg/mL: median MIC ([1]; 18 in-house BV patient isolates, H2B10B11 read after 72 h)
8 µg/mL: median MBC99.5 ([1]; 18 in-house BV patient isolates)
4 to 8 µg/mL: inhibiting concentration (MIC) ([1]; the 10 MDZ-resistant isolates of the panel of 18)
no significant difference: difference between the MICs of G. vaginalis and G. leopoldii/swidsinskii [2, 25] | difference in susceptibility between isolates from African and European BV patients [2, 25]
4.4 µg/mL: MIC90 ([1]; panel of 18 BV patient isolates)
susceptible: Susceptibility of BV patient isolates of various origins (FIG. 6) [2]
maintained: Lytic effect on MDZ-resistant Gardnerella isolates (FIG. 5) ([1]; panel of n=18 BV patient isolates)
